Source: patent US4778818A, “Substituted 2-(heteroaryl-2-propenyl)phenols useful as anti-inflammatory agents” (Merck & Co., Inc., priority 1987, dated 1988)

Assays:
[1] = system: inflammatory responses elicited by topically applied phorbol myristate acetate (PMA) or topically applied archidonic acid (AA) in mouse ear; assay: Topical mouse ear assay (TME); format: in vivo, mice
Experimental: The topical mouse ear assay (TME) was used to evaluate the novel compounds of the present invention for its effect on inflammatory responses elicited by topically applied phorbol myristate acetate (PMA) or topically applied archidonic acid (AA).
TABLE I Topical Mouse Ear Assay
Method: The right ears of mice (5 mice per group) were treated topically with either […] or 1000 μg AA alone or with the test compound in 25 μl of vehicle. The vehicle was water/pyridine/acetone (1:2:97). A control group of mice received the vehicle only. The mice were allowed food and water ad libitum during the treatment period; 2 hours for AA and 4 hours for PMA. The mice were sacrificed by cervical dislocation and a 6 mm diameter disc of tissue punched from both the treated and untreated ears. The tissue biopsies were immediately weighed and the weight increase of the treated ear relative to the weight of the untreated ear determined.
At the termination of the experiment, the amount of radioactivity in both the treated and untreated ear biopsies was determined and the increased amount of radioactivity in the treated tissue relative to the amount of radioactive in the untreated tissue determined.
As a measure of PMN infiltration, the amount of myeloperoxidase (MPO) activity in the same tissues was determined. The tissue biopsies were homogenized into 1 ml 0.5% hexadecyltrimethylammonium bromide and centrifuged for 45 min. at 1200×g. Aliquots 40 μl, of the supernatant phases were assayed for MPO activity by a colorimetric method devised by H. Dougherty for automated Titertek analysis. The MPO activity is expressed as the OD450 of the treated ear homogenate minus the OD450 of the non-treated ear homogenate.
All of the data are expressed as the mean±SEM, N=5 mice/group.

[2] = system: inflammatory responses elicited by topically applied phorbol myristate acetate (PMA) or topically applied archidonic acid (AA) in mouse ear; conditions: previously established, in words; cited from earlier work

Row | Compound | Edema (% inhibition) ([1]; dosage 50 μg) | Edema (% inhibition) ([1]; dosage 150 μg) | Edema (% inhibition) ([1]; dosage 300 μg) | Edema (% inhibition) ([1]; dosage 5 μg) | activity in the topical mouse ear assay [2]
1 | OCc1ccccc1/C=C/Cc1cc2c(cc1O)CCO2 [A, 5-hydroxy-6-(2-hydroxymethylcinnamyl)-2,3-dihydrobenzofuran] | 37% | 54% | 88% |  | 
2 | C[C@@H]1C[C@H]2[C@@H]3CCC4=CC(=O)C=C[C@]4(C)[C@@]3(F)[C@@H](O)C[C@]2(C)[C@@]1(O)C(=O)CO [Dexamethasone] |  |  |  | 60% | active
3 | COc1ccc2c(c1)c(CC(=O)O)c(C)n2C(=O)c1ccc(Cl)cc1 [Indomethacin] |  | 51% |  |  | active
